# Experimental data published in article PMC5972182, “Comparison of a Rat Primary Cell-Based Blood-Brain Barrier Model With Epithelial and Brain Endothelial Cell Lines: Gene Expression and Drug Transport” (Frontiers in Molecular Neuroscience, 2018).
# Tests used:
# [1] = Permeability across vinblastine-selected VB-Caco-2 cell layers; settings: human
# [2] = Permeability across primary rat brain endothelial cell-based triple co-culture BBB model (EPA)
# [3] = Permeability across Caco-2 epithelial cell layers; format: in vitro ADME; settings: human, CaCo2, fluorescein 10 μg/ml, mean ± SD
# [4] = Permeability across MDCK cell layers; format: in vitro ADME, canine; settings: dog, fluorescein 10 μg/ml, mean ± SD
# [5] = Permeability across MDCK-MDR1 cell layers; format: in vitro ADME, canine; settings: dog, fluorescein 10 μg/ml, mean ± SD
# [6] = Permeability across GP8 brain endothelial cell line; format: in vitro ADME; settings: rat, fluorescein 10 μg/ml, mean ± SD
# Method: GP8 rat brain endothelial cell line (provided by Dr. John Greenwood, University College London, UK) was cultured in DMEM/ HAM’s F-12, 15% PDS, 100 μg/ml heparin, 1 ng/ml bFGF and 50 μg/ml gentamicin.
# [7] = Permeability across RBE4 brain endothelial cell line; format: in vitro ADME; settings: rat, fluorescein 10 μg/ml, mean ± SD
# Method: RBE4 rat brain endothelial cell line (provided by Dr. Pierre-Olivier Couraud, Institut Cochin, Paris, France) was grown in DMEM/ HAM’s F-12, supplemented with 10% FBS, 1 ng/ml bFGF and 50 μg/ml gentamicin.
# [8] = Permeability across hCMEC/D3 (D3) brain endothelial cell line; format: in vitro ADME; settings: human, fluorescein 10 μg/ml, mean ± SD
# Method: (§1) Cultures of human brain endothelial hCMEC/D3 cell line (≤passage number 35) were grown in MCDB 131 medium (Pan Biotech) supplemented with 5% FBS, GlutaMAX (100×, LifeTechnologies, Carlsbad, CA, USA), lipid supplement (100×, Life Technologies, Carlsbad, CA, USA), 10 μg/ml ascorbic acid, 550 nM hydrocortisone, 100 μg/ml heparin, 1 ng/ml basic fibroblast growth factor (bFGF, Roche, USA), 2.5 μg/ml insulin, 2.5 μg/ml transferrin, 2.5 ng/ml sodium selenite and 50 μg/ml gentamicin (Weksler et al., [2005]). For differentiation of this cell line (D3L group), the medium was supplemented with 10 mM lithium chloride (LiCl) at the first change of medium (Paolinelli et al., [2013]). For the three brain endothelial cell lines, we used culture media with very similar or identical composition to those that were originally described for their growth and maintenance.
# [9] = Permeability across lithium-treated hCMEC/D3 (D3L) cells; format: in vitro ADME; settings: human, D3L (10 mM LiCl), fluorescein 10 μg/ml, mean ± SD
# Method: as §1
# in vitro [10] = settings: rat
# in vitro [11] = settings: human, Caco-2
# hCMEC/D3 cells = test: Transendothelial electrical resistance (TEER) of D3 cells after lithium treatment; format: cell-based, human; settings: 10 mM lithium chloride in medium; unpaired t-test, P < 0.0004
# Method: as §1
# Transendothelial electrical resistance (TEER), reflecting the permeability of TJ for sodium ions, was measured by an EVOM voltohmmeter (World Precision Instruments, Sarasota, FL, USA) combined with STX-2 electrodes. Recorded resistance was expressed to the surface area of the filters (Ω × cm^2, Transwell inserts, […] membrane, 0.4 μm pore size, Corning Costar, USA). TEER of cell-free inserts (110 Ω × cm^2) was subtracted from the measured data.
smiles,measurement,setting,value
"NCC(CC(=O)O)c1ccc(Cl)cc1 (centres unmarked) [Baclofen, baclofen]",Papp A→B,[1],0.31 ×10⁻⁶ cm/s
same,Papp A→B,[2]; Wistar,16.3 ×10⁻⁶ cm/s
"O=C1OC2(c3ccc(O)cc3Oc3cc(O)ccc32)c2ccccc21 [Fluorescein, fluorescein]","Papp at 30 min, 10 µg/ml",[3],1.5 ± 0.28 ×10⁻⁶ cm/s
same,"Papp at 30 min, 10 µg/ml",[4],2.8 ± 0.23 ×10⁻⁶ cm/s
same,"Papp at 30 min, 10 µg/ml",[5],2.7 ± 0.31 ×10⁻⁶ cm/s
same,"Papp at 30 min, 10 µg/ml",[6],39.8 ± 3.51 ×10⁻⁶ cm/s
same,"Papp at 30 min, 10 µg/ml",[7],27.4 ± 1.63 ×10⁻⁶ cm/s
same,"Papp at 30 min, 10 µg/ml",[8],22.2 ± 3.71 ×10⁻⁶ cm/s
same,"Papp at 30 min, 10 µg/ml",[9],19.3 ± 1.22 ×10⁻⁶ cm/s
same,"Papp at 30 min, 10 µg/ml",[1],0.3 ± 0.06 ×10⁻⁶ cm/s
same,"Papp at 30 min, 10 µg/ml",[2]; Wistar,2.1 ± 0.25 ×10⁻⁶ cm/s
"NCC1(CC(=O)O)CCCCC1 [Gabapentin, gabapentin]",Papp A-B,VB-Caco-2 cells,below the detection limit
same,Papp A→B,in vitro [10]; Wistar,2.98 ×10⁻⁶ cm/s
same,efflux ratio,in vitro [10],0.92
same,Papp A→B,in vitro [11],< 0.88 ×10⁻⁶ cm/s
same,efflux ratio,in vitro [11],> 0.27
"CO[C@H]1[C@H](O)[C@@H](CO)OC(O)[C@@H]1O (stereo partly drawn) [Glucopyranose, 3-O-methyl-D-glucopyranose]",Papp A→B,[1],17.2 ×10⁻⁶ cm/s
same,Papp A→B,[2]; Wistar,< 65.7 ×10⁻⁶ cm/s
"N[C@@H](Cc1ccc(O)c(O)c1)C(=O)O [L-DOPA, 3,4-dihydroxy-L-phenylalanine]",efflux ratio at 10 μM,[2],0.4
same,Papp A→B,[2]; Wistar,73 ± 4 ×10⁻⁶ cm/s
"CC[C@H](C)C(=O)O[C@H]1C[C@H](O)C=C2C=C[C@H](C)[C@H](CC[C@@H](O)C[C@@H](O)CC(=O)O)[C@H]21 [Pravastatin, pravastatin]",Papp A→B,[1],0.19 ×10⁻⁶ cm/s
same,Papp A→B,[2]; Wistar,7.61 ×10⁻⁶ cm/s
"CCCN(CCC)S(=O)(=O)c1ccc(C(=O)O)cc1 [Probenecid, probenecid]",Papp A→B,[1],33.4 ×10⁻⁶ cm/s
same,Papp A→B,[2]; Wistar,19 ×10⁻⁶ cm/s
"CC(C)c1nc(N(C)S(C)(=O)=O)nc(-c2ccc(F)cc2)c1/C=C/[C@@H](O)C[C@@H](O)CC(=O)O [Rosuvastatin, rosuvastatin]",Papp A→B,[1],0.38 ×10⁻⁶ cm/s
same,Papp A→B,[2]; Wistar,11.3 ×10⁻⁶ cm/s
"O=C(O)c1ccccc1O [Salicylic acid, salicylic acid]",Papp A→B,[1],7.6 ×10⁻⁶ cm/s
same,Papp A→B,[2]; Wistar,4.78 ×10⁻⁶ cm/s
"CCCC(CCC)C(=O)O [Valproic acid, valproic acid]",Papp A→B,[1],42.2 ×10⁻⁶ cm/s
same,Papp A→B,[2]; Wistar,39.4 ×10⁻⁶ cm/s
"[Cl-].[Li+] [lithium, lithium chloride]",Effect on TEER of D3 cells,hCMEC/D3 cells,significantly elevated
Nc1c2c(nc3ccccc13)CCCC2 [tacrine],"Papp at 30 min, 0.5 µM",in vitro [10]; Wistar,102 ± 27 ×10⁻⁶ cm/s
